Tests used:
porcine STSG cells = assay: scRNA-seq of porcine STSG tissue; type: in vivo, red Duroc pigs; conditions: for number of DEGs between untreated STSG and STSG treated with FAKI: POD7
Experimental: We obtained a 1 cm^2 tissue from the center of our STSG groups or unwounded skin. The tissue was thoroughly cut into small 1 mm^2 pieces using a scalpel before then being carefully minced with fine scissors. To maximize cell capture for scRNA-seq, diligent care was made to cut the tissue into a fine tissue paste consistency. An increased enzyme concentration and volume of 30 ml of 1 mg/mL Liberase (Sigma-Aldrich 5401127001) in PBS were used to fully break down the dense, fibrotic porcine extracellular matrix. The cell-digest suspensions were constantly agitated (rotated) for a total of 2 hours at 37° C. Tissue solution was subjected to maximum speed vortex mixer (VWR) for 30 seconds before being placed in the oven, after 1 hour, and again after total of 2 hours to physically disrupt any tissue that had clumped together and maximize the tissue surface area exposed to enzymatic digestion at all times.
The tissue solution was filtered through a 100 μm Nylon cell filter (Fisher-Scientific 08-771-19) into a new conical tube, and 20 mL of 10% FBS DMEM was added through the filter to quench the enzymatic reaction and release any cells trapped within the filter, maximizing downstream cell yield. Solutions were spun at 350×g for 5 min at 4° C. in a centrifuge, supernatant was aspirated, and cells were then resuspended in 20 mL 10% FBS DMEM and passed through a 70 μm Nylon cell filter. A 20 mL solution of 10% FBS in PBS (FACS Buffer) was added through the filter to wash the remaining cells.
This cellular suspension was then resuspended in a concentrated solution and submitted for droplet-based microfluidic single cell RNA sequencing (scRNA-seq) at the Stanford Functional Genomics Facility (SFGF) using the 10× Chromium Single Cell platform (Single Cell 3′ v3, 10× Genomics, USA). The cell suspension, reverse transcription master mix, and partitioning oil was loaded onto a single cell chip, processed on the Chromium Controller, and reverse transcription was performed at 53° C. for 45 min. cDNA was amplified for 12 cycles total (BioRad C1000 Touch thermocycler) with cDNA size selected using SpriSelect beads (Beckman Coulter, USA) and a 3:5 ratio of SpriSelect reagent volume to sample volume. cDNA was analyzed on an Agilent Bioanalyzer High Sensitivity DNA chip for qualitative control, fragmented for 5 min at 32° C., followed by end repair and A-tailing at 65° C. for 30 min, and then double-sided size selected with SpriSelect. Sequencing adaptors were ligated to the cDNA at 20° C. for 15 min. cDNA was amplified using a sample-specific index oligo as primer, followed by another round of double-sided size selection. Final libraries were analyzed on an Agilent Bioanalyzer High Sensitivity DNA chip for qualitative control purposes. cDNA libraries were sequenced on a HiSeq 4000 Illumina platform aiming for 50,000 reads per cell.
Base calls were converted to reads using the Cell Ranger (10× Genomics; version 3.1) implementation of mkfastq and then aligned against our custom pig transcriptome using Cell Ranger's count function with SC3Pv3 chemistry and 5,000 expected cells per sample (51). Cell barcodes were filtered for high quality based on an optimized threshold of having at least 200 unique transcripts profiled, less than 10,000 total transcripts, and less than 10% of their transcriptome of mitochondrial origin (114).
Unique molecular identifiers (UMIs) from each cell barcode were retained for all downstream analysis. Raw UMI counts were normalized with a scale factor of 10,000 UMIs per cell and subsequently natural log transformed with a pseudocount of 1 using the R package Seurat (version 3.1.1) (52). Highly variable genes were identified, and cells were scaled by regression to the fraction of mitochondrial transcripts. Aggregated data was then evaluated using uniform manifold approximation and projection (UMAP) analysis over the first 15 principal components (115). […]

[1] = system: full-thickness excisional wounds with STSG; assay: Scar contracture analysis in porcine STSG model; type: in vivo, red Duroc pigs
Excerpt: (§1) STSG were not disturbed during the first 3 days.
(§2) After three weeks, dressings (and hydrogels) were changed twice per week until month 3. STSG were no longer bolster dressed and instead a conventional dressing was used (Telfa+Tegaderm). Each STSG within the animal was biopsied for histological and molecular evaluation at the end of the study.
STSG were monitored photographically at each dressing change. Each image was taken with a ruler or standard measurement device to standardize measurements. Scar areas were traced over time in ImageJ. Contracture was measured as change in scar area, normalized to the area of the STSG during the first dressing change. Two independent evaluators measured scar area, and the resultant scar area was the average of the two measurements.

tumor growth = conditions: in vivo; cited from earlier work
porcine fibroblasts = assay: 3D organotypic scar culture system (strained collagen scaffolds), scRNA-seq; type: cell-based; conditions: 10% strain, 10 µM FAKI
Excerpt: (§3) To determine whether the increased mechanical strain experienced by cells within the healing STSG would trigger the same fibroblast transcriptional states observed in vivo, we used our previously published three-dimensional (3D) organotypic scar culture system that permits the precise manipulation of strain (and therefore stress) without any other potential confounding factors (27, 98). Fibroblasts were first isolated from human skin and seeded within 3D collagen scaffolds (FIG. 8A). These scaffolds were then subjected to either 10% strain (Strain, S), 10% strain with FAK inhibition (Strain+FAKI, S+FAKI), or 0% strain (No Strain, NS) as a control (FIG. 8, A to C). Because it seemed likely that healing tissue would not be subjected to maximal strains (due to pain), we used a strain profile of 10% to represent the average wound strain environment.
We isolated and cultured dermal fibroblasts from both healthy human and porcine skin samples. Fibroblasts were isolated by mechanical and enzymatic digestion and cultured under standard conditions until passage 3. […]
We used a suture to paint nine Titanium(IV) oxide dots (Sigma-Aldrich 248576) on the surface of the central region of the gel to track and quantify the imposed strains. […]

[2] = system: full-thickness excisional wounds with STSG; assay: Cutometer viscoelastic analysis of STSG biomechanical properties; type: in vivo, red Duroc pigs; conditions: vs untreated STSG; P<0.05
Excerpt: as §1, §2
A cutometer (Dual MPA 580, Courage+Khazaka Electronic) was used to evaluate the firmness and elasticity of the healing tissue and unwounded skin. Cutometer assessment is one of the most common instruments to measure viscoelasticity in human patients (111, 112), measuring the vertical deformation of the skin surface by applying negative pressure (suction) through a small circular diameter (8 mm probe). Deformation (suction) for two seconds followed by two seconds of relaxation (no suction) was applied three times and averaged. The firmness 0 was measured as the amplitude at the end of the suction phase (RO metric) and normalized against the values of STSG treated with blank hydrogels (111). Increased deformation to a consistent negative pressure corresponds to less firm tissue, more similar to unwounded skin.

[3] = system: full-thickness excisional wounds with STSG; assay: Histological analysis of collagen architecture of porcine STSG; type: in vivo, red Duroc pigs
Experimental: as §1
No patient identifying information was retained with the samples.
Masson's Trichrome staining and Picrosirius Red staining were performed, and images were captured with a Leica DM5000 B upright microscope. For Picrosirius Red, polarized light microscopy was used to obtain 40× magnification images and analysis of fiber alignment was performed using CurveAlign (109) and MatFiber (98, 110). The strength of alignment ranges from a value of 0 (completely random fiber alignment) to 1 (completely aligned fibers). Quantification of individual collagen fiber parameters (fiber length, width) was performed using CT-FIRE (http://loci.wisc.edu/software/ctfire) (109, 113).

human fibroblasts = assay: 3D organotypic scar culture system (strained collagen scaffolds), immunofluorescent staining; type: cell-based; conditions: 10% strain, 48 hours, 10 µM FAKI, vs strained fibroblasts
Excerpt: as §3
We isolated and cultured dermal fibroblasts from both healthy human and porcine skin samples. Fibroblasts were isolated by mechanical and enzymatic digestion and cultured under standard conditions until passage 3. Following our previously published protocols (98), we used the primary fibroblasts to create fibroblast-populated collagen hydrogels with a concentration of 200 k cells/mL and 2 mg/mL collagen (PureCol, Advanced Biomatrix 5005). In brief, collagen scaffolds were formulated in a cruciform shape with sponges in the arms and cultured in petri dishes on top of a layer (˜0.5 cm) of cured polydimethylsiloxane (PDMS; Sylgard 184 Silicone Elastomer Kit; Dow Corning). Pins were pushed through the sponges in the hydrogel cruciform arms to constrain the scaffolds during an initial pre-culture period (24h). Then, we subjected the scaffolds to either 0% strain (no strain) or 10% equibiaxial strain (either with or without FAKI) for an additional 48 hours. Strained but untreated cells were given 10 μL DMSO in 20 mL culture media, while strained and treated cells were administered 10 μL of 20 mM FAKI in DMSO in 20 mL culture media to achieve a final concentration of 10 µM FAKI.
We used a suture to paint nine Titanium(IV) oxide dots (Sigma-Aldrich 248576) on the surface of the central region of the gel to track and quantify the imposed strains. We used a digital camera to image the markers before and after strain. Strain was imposed by removing the pins, manually extending the hydrogel cruciform arms, and pushing the pins back through the arms to hold the scaffold in a new, extended position. Photographs of the marker positions were used to compute a single homogenous deformation gradient tensor F that provided the least-squares best fit mapping of the 9 marker positions from the undeformed to deformed positions by solving the overdetermined matrix equation: […]

[4] = POD90, regenerative lineages 1 and 2

For `CN(c1ncccc1CNc1nc(Nc2ccc3c(c2)CC(=O)N3)ncc1C(F)(F)F)S(C)(=O)=O` [FAKI], the “number of DEGs between untreated STSG and STSG treated with FAKI” value (from here on “number … with FAKI”) (porcine STSG cells; all other cell types) was less than 75, the “number … with FAKI” value (porcine STSG cells; fibroblasts) was “about 50” and the “number … with FAKI” value (porcine STSG cells; monocyte-lineage cells (macrophages, monocytes, dendritic cells)) was greater than 170. For the same compound, the “number … with FAKI” value (porcine STSG cells; neutrophils and lymphoid cells, each) was “around 100”, the “adipogenic gene sets and stem cell markers (CD34 and NT5E) in fibroblasts” value (porcine STSG cells; POD90, lineages 1 and 2) was “promoted” and the “fibroblast transcriptional state (CellRank lineages)” value (porcine STSG cells; POD90, primarily lineages 1 and 2) was “transcriptional similarity to those from unwounded skin”. The “APOE, CLEC3B, CD34, and PPARG unspliced pre-mRNA in fibroblasts” value (porcine STSG cells; [4]) was “upregulation”, the “pro-fibrotic genes in fibroblasts” value (porcine STSG cells; [4]) was “abrogation” and the “secretion of IP-10 (CXCL10)” value (porcine STSG tissue; POD 7, P<0.05) was “upregulated”. The “number of infiltrating inflammatory cells (F4/80-positive macrophages)” value (porcine STSG tissue; early (POD 7, P<0.001) and late (POD 90, P<0.05) time points) was “significantly decreased”, the “scar contracture at early time points” value ([1]; POD7, P=0.09, POD21, P<0.05) was “blocked scar contracture” and the scar contracture ([1]; POD28, change in scar area normalized to STSG area at first dressing change, untreated and blank hydrogel-treated STSGs over 70%) was 30%. For the same compound, the tumor growth (tumor growth) was “blocks tumor growth”, the “APOE, EGR1 and PRDX1 expression” value (porcine fibroblasts) was “upregulation” and the “pro-fibrotic responses (CXCL14, THBS2, COL1A1 expression)” value (porcine fibroblasts) was “abrogated”. The “STSG firmness and stiffness (cutometer deformation)” value [2] was “less firm and less stiff”, the “collagen fiber length and alignment” value ([3]; deep dermis, POD90, P<0.05) was “shorter and more randomly aligned” and the overall collagen deposition ([3]; superficial and deep dermis, by decreasing fiber widths and architectural complexity) was “decreased”. The CD34 expression (human fibroblasts; P<0.0001) was “significantly increasing”, the APOE expression (human fibroblasts; P<0.01) was “significantly increasing” and the aSMA expression (human fibroblasts; P<0.01) was “significantly decreased”. For the same compound, the CXCL14 expression (human fibroblasts; P<0.05) was “significantly decreased” and the THBS4 expression (human fibroblasts; P<0.05) was “significantly decreased”.

Reference: patent US20240252494A1, “Mechanotransduction Disruption Mediation in Skin Grafting Methods and Compositions for Use in Practicing the Same” (The Board of Trustees of the Leland Stanford Junior …, priority 2021, published 2024)
